# Measurements published in patent US7083933B1, “Methods for identification of modulators of OSGPR116 activity” (Prosidion Limited, priority 2003, dated 2006).
# Tests used:
# [1] = molecular target: T1, mouse homolog of OSGPR116 (Mus musculus, UniProt Q7TQP3); experiment: Yeast cell-based Fus1p-LacZ reporter assay, mouse OSGPR116; conditions: mouse isoform, FIG. 9b; Galpha-q5 yeast, 4h incubation
# T1 construct: expressed in transfected cells; host or cells: engineered yeast (GPA1 and Ste3 deleted, G-alpha chimera, Fus1p-LacZ reporters)
# T1 sequence (Q7TQP3 1-335): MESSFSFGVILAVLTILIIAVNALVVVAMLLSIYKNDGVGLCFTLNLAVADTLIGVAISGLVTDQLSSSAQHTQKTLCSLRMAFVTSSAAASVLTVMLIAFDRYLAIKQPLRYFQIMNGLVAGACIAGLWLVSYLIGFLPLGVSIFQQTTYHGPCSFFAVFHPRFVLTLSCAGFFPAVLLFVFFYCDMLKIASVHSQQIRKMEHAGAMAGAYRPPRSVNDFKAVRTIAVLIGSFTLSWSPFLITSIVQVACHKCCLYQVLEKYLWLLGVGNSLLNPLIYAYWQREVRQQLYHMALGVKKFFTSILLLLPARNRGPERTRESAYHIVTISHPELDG
# Source text: (§1) The yeast cell-based reporter assays have previously been described in the literature (e.g. see Miret J. J., et. al. (2002) J. Biol. Chem. 277:6881–6887; Campbell R. M., et. al. (1999) Bioorg Med. Chem. Lett. 9:2413–2418; King K., et. al. (1990) Science. 250:121–123); WO 99/14344; WO 00/12704; and U.S. Pat. No. 6,100,042). Briefly, yeast cells have been engineered such that the endogenous yeast G-alpha (GPA1) has been deleted and replaced with G-protein chimeras constructed using multiple techniques. Additionally the endogenous yeast alpha-cell GPCR, Ste3 has been deleted to allow for a […] expression of a mammalian GPCR of choice. In the yeast, elements of the pheromone signaling transduction pathway, which are conserved in eukaryotic cells (for example, the mitogen-activated protein kinase pathway), drive the expression of Fus1. By placing β-galactosidase (LacZ) under the control of the Fus1 promoter (Fus1p), a system has been developed whereby receptor activation leads to an enzymatic read-out. Different yeast strains (e.g. FIG. 10) denote the presence of different G-alpha chimeras (see “yeast reporter assays” in Results section below for definitions).
# (§2) Yeast cells are transformed by an adaptation of the Lithium acetate method described by Agatep et.al. (Agatep, R., et. al. (1998) Transformation of Saccharomyces cerevisiae by the lithium acetate/single-stranded carrier DNA/polyethylene glycol (LiAc/ss-DNA/PEG) protocol. Technical Tips Online, Trends Journals, Elsevier). Briefly, yeast cells are grown overnight on yeast tryptone plates (YT). Carrier single-stranded DNA (10 μg), 2 μg of each of two Fus1p-LacZ reporter plasmids (one with URA selection marker and one with TRP), 2 μg of OSGPR116 in yeast expression vector (2μ origin of replication) and a lithium acetate/polyethylene glycol/TE buffer is pipetted into an Epindorf tube. The yeast expression plasmid containing the receptor/no receptor control has a LEU marker. Yeast cells are inoculated into this mixture and the reaction proceeds at 30° C. for 60 minutes. The yeast cells are then heat-shocked at 42° C. for 15 minutes. The cells are then washed and spread on selection plates. The selection plates are synthetic defined yeast media minus LEU, URA and TRP (SD-LUT). After incubating at 30° C. for 2–3 days, colonies that grow on the selection plates are then tested in the LacZ assay.
# (§3) In order to perform fluorometric enzyme assays for β-galactosidase, yeast cells were grown overnight in liquid SD-LUT media to an unsaturated concentration (i.e. the cells are still dividing and have not yet reached stationary phase). They are diluted in fresh media to an optimal assay concentration and 90 μL of yeast cells were added to 96-well black polystyrene plates (Costar). Compounds, dissolved in ethanol and diluted in a 1% BSA solution to 10× concentration, were added to the plates and the yeast are placed at 30° C. for 4h. After 4h, the substrate for the β-galactosidase is added to each well. The substrate may yield a fluorescent or calorimetric read-out upon the activity of the β-galactosidase. In these experiments, Fluorescein di (β-D-galactopyranoside) was used (FDG), a substrate for the enzyme that releases fluorescein, allowing a fluorometric read-out. 20 μL of 500 uM FDG was used. After incubation of the cells with the substrate for 30–60 mins, 20 μL of 1M sodium carbonate is added to terminate the reaction and enhance the fluorescent signal. The plates were then read in a fluorometer at 485/535 nm. As an alternate read-out system, the yeast are also engineered with a Fus1p-HIS gene which means that activation of the receptor can also be measured through the growth of the yeast in a […] deficient media.
# [2] = system: vector transformed yeast cells; experiment: Yeast reporter assay, vector transformed (no receptor) control yeast; type: cell-based
# Source text: as §1, §2, §3
# [3] = molecular target: T2, OSGPR116 (Homo sapiens, UniProt Q8TDV5); experiment: Adenylate cyclase (alpha-screen cAMP) assay in ASPC-1 cells endogenously expressing OSGPR116; type: cell-based; conditions: FIG. 11
# T2 sequence (Q8TDV5 1-335): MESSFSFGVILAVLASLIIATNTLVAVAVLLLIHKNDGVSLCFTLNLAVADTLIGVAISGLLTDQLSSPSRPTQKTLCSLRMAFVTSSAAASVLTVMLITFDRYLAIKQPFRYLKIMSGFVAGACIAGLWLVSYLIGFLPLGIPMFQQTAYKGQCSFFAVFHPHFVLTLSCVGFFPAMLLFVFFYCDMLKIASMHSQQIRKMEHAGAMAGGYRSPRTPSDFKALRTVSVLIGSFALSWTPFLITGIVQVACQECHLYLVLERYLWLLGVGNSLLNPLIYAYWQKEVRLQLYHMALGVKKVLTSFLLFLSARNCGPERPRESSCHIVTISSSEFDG
# Experimental: The adenylate cyclase assay was performed with an alpha-screen cAMP assay kit […]. The manufacturers protocol was followed. Briefly, ASPC-1 cells, known to endogenously express moderate levels of OSGPR116 were […] from the culture flask using a lysis buffer (0.1% BSA in PBS containing 20 μM rolipram and 0.54% TWEEN20), washed with PBS and diluted in assay buffer (0.1% BSA in PBS containing 20 μM rolipram) to a concentration of 600,000 cells/mL. White polystyrene 96-well plates were used for the assay. […] The plate was incubated at room temperature 30 min. For the standard cAMP curve used to quantify the data, 5 μl water+5 μl 4×cAMP in assay buffer+5 μl acceptor beads+5 μl cells were added to the plate. To terminate the assay, 10 ul of the donor beads solution was added (30 nM biotin-cAMP/60 μg streptavidin-donor beads in 1 mL lysis buffer). The plates were incubated overnight, protected from light. A Fusion-αHT counter was used to read the plates according to the kit's instructions.
# [4] = system: Wistar rats; experiment: In vivo acute feeding experiment in fasted rats; parameters: species or system rat; conditions: overnight fasted Wistar rats, 1 and 2h post-treatment, FIG. 13
# Experimental: For the acute feeding experiment, the experimental conditions used as closely as possible replicated those of de Fonseca, F. R. et.al. (2001) Nature, 414:209–212. […] Oleoylethanolamide (3 and 10 mg/kg i.p.) or vehicle was administered 15 minutes prior to the availability of food. Oleoylethanolamide was dissolved in dimethylsulfoxide (DMSO) and administered in a 70% DMSO in sterile water solution. Following presentation of food, food intake (grams) was measured at 1, 2, 3 and 4h intervals and the results compared to a normal feeding and vehicle treated control group.
# [5] = molecular target: T2, OSGPR116; experiment: Yeast cell-based Fus1p-LacZ reporter assay, human OSGPR116; parameters: expressed in transfected cells; host or cells: engineered yeast (GPA1 and Ste3 deleted, G-alpha chimera, Fus1p-LacZ reporters); conditions: for rank of efficacy and potency among compounds tested: yeast-based reporter assay
# Source text: as §1, §2, §3
# [6] = molecular target: T2, OSGPR116; experiment: Yeast reporter assay in strains with different G-alpha chimeras; type: cell-based; parameters: expressed in transfected cells; host or cells: yeast strains 13397, 13393, 15070, 18043, 20202, 10151 with different G-alpha chimeras; conditions: G-alpha-q (13397), G-alpha-i (13393, 15070, 18043), G-alpha-s (20202, 10151) strains; FIG. 10
# Source text: The yeast cell-based reporter assays have previously been described in the literature (e.g. see Miret J. J., et. al. (2002) J. Biol. Chem. 277:6881–6887; Campbell R. M., et. al. (1999) Bioorg Med. Chem. Lett. 9:2413–2418; King K., et. al. (1990) Science. 250:121–123); WO 99/14344; WO 00/12704; and U.S. Pat. No. 6,100,042). Briefly, yeast cells have been engineered such that the endogenous yeast G-alpha (GPA1) has been deleted and replaced with G-protein chimeras constructed using multiple techniques. Additionally the endogenous yeast alpha-cell GPCR, Ste3 has been deleted to allow for a […] expression of a mammalian GPCR of choice. […] By placing β-galactosidase (LacZ) under the control of the Fus1 promoter (Fus1p), a system has been developed whereby receptor activation leads to an enzymatic read-out. […]
# In order to perform fluorometric enzyme assays for β-galactosidase, yeast cells were grown overnight in liquid SD-LUT media to an unsaturated concentration (i.e. the cells are still dividing and have not yet reached stationary phase). […] The substrate may yield a fluorescent or calorimetric read-out upon the activity of the β-galactosidase. In these experiments, Fluorescein di (β-D-galactopyranoside) was used (FDG), a substrate for the enzyme that releases fluorescein, allowing a fluorometric read-out. […] The plates were then read in a fluorometer at 485/535 nm. […]
structure (smiles),measurement,setting,value
CCCCCCCC/C=C\CCCCCCCC(=O)NCCO [oleoyl ethanolamide],effect on fluorescence (β-galactosidase activity) in yeast transformed with OSGPR116 receptor,[1],increase in fluorescence
same,response of vector controls in the same yeast strains,"[2]; G-alpha chimera strains, FIG. 10",did not respond
same,increase in fluorescence in vector transformed cells,"[2]; yeast without OSGPR116 expression, FIGS. 9a, 9b",not
same,forskolin-stimulated cAMP accumulation,[3]; 10 μM compound with forskolin (10 μM),inhibition
same,cAMP production,"[3]; 10 μM, without forskolin",did not cause an increase
same,feeding (food intake),[4]; 3 mg/kg i.p.,inhibition of feeding
same,feeding (food intake),[4]; 10 mg/kg i.p.,inhibition of feeding
same,effect on fluorescence (β-galactosidase activity) in yeast transformed with OSGPR116 receptor,"[5]; human isoform, FIG. 9a, Galpha-q5 yeast, 4h incubation",increase in fluorescence
same,rank of efficacy and potency among compounds tested,[5]; listed as Oleoyl ethanolamide,most efficacious and potent
same,rank of efficacy and potency among compounds tested,[5]; listed as oleoylethanolamide,optimal endogenously produced agonist
same,response in OSGPR116-transformed yeast with G-alpha chimeras,[6],produce a response
